Experiments:
[1] = test system: bone marrow-derived dendritic cells (BMDCs); assay: BMDC CD40 and CD86 expression by flow cytometry; type: cell-based, C57BL/6J mice
Description: All staining procedures were performed in the dark at room temperature. For analysis of surface marker expression on bone marrow-derived DCs, cells were first stained with LIVE/DEAD aqua (Life Technologies, L-34966) for 30 min at room temperature in PBS. Fc receptors were blocked with anti-CD16/CD32 (Biolegend, 101320) for the final 10 min of staining. The cells were then washed and stained with specific conjugated antibodies for the specified surface markers in FACS buffer (PBS supplemented with 2% FBS and 1 mM EDTA) for 30 min.
(§1) Cells were analyzed by flow cytometry using a MACSQuant flow cytometer (Miltenyi Biotec). Flow data analysis was performed in FlowJo (FlowJo) or FlowLogic (Inivai).
BMDCs were generated as described in Lutz, “An advanced culture method for generating large quantities of highly pure dendritic cells from mouse bone marrow,” 1999, J. Immunol. Methods 223:77-92, with minor modifications. Briefly, femurs were removed from 6-10-wk-old female C57BL/6J mice, cut on both ends, and marrow flushed with PBS. Bone marrow cells were then pelleted by centrifugation (500×g for 8 min), resuspended in red blood cell lysis buffer (Sigma) for 1 min, and quenched with excess PBS. After another centrifugation, cells were resuspended in complete RPMI (cRPMI) media consisting of RPMI-1640 with GlutaMAX™ supplement (Thermo Fisher Scientific) supplemented with 10% FBS, penicillin-streptomycin (Gibco), and 50 μM 2-mercaptoethanol (Sigma). On day 0, ˜2×10^6 cells were then seeded per 100-mm plate in 10 mL media containing 20 ng/mL rmGM-CSF (Peprotech). On day 3, an additional 10 mL fresh cRPMI media containing 20 ng/mL rmGM-CSF was added to each plate. On day 6, half the culture supernatant from each plate was removed and centrifuged, and the pelleted cells resuspended in 10 mL fresh cRPMI with 20 ng/mL rmGM-CSF and added back to the plates. On day 8, all nonadherent cells (representing the BMDC fraction) were collected, pelleted by centrifugation, resuspended in fresh cRPMI media with 20 ng/mL rmGM-CSF, and plated into 24-well dishes. These BMDCs were then treated overnight with or without LPS 100 ng/mL plus the indicated doses of bryo-1. The following day (day 9), these cells were then assayed by flow cytometry or cytokine ELISA.

[2] = test system: EAE (MOG35-55 immunized mice); assay: EAE prevention paradigm, clinical scoring; type: in vivo, C57BL/6J mice; conditions: 30 μg/kg i.p. 3 d per week from day of MOG35-55 immunization (day 0)
Description: Experimental autoimmune encephalomyelitis (EAE) is an experimental animal model that recapitulates some aspects of MS. In the active-induction model of mouse EAE, mice are immunized with a peptide derived from myelin oligodendrocyte glycoprotein (MOG35-55), resulting in robust CNS inflammation causing demyelination, axonal injury, and motor weakness/paralysis.
Active EAE was induced in 8-12 wk-old female C57BL/6J mice that had been allowed to acclimatize to the animal facility for at least 1 wk. MOG35-55 peptide dissolved in PBS at a concentration of 2 mg/mL was mixed 1:1 with complete Freund's adjuvant to make an emulsion. On day 0, mice were immunized by injecting 50 μL of the emulsion s.c. into each of two sites on the lateral abdomen. In addition, on day 0 and again on day 2, mice were injected intraperitoneally with 250 ng pertussis toxin. Mice were weighed and scored beginning on day 7 post-immunization. Scoring was performed in a blinded manner according to the following scale:
Bryo-1 was prepared by initially dissolving in 100% ethanol and then further diluting to 20% ethanol and 1% DMSO in PBS. The final concentration of bryo-1 was […] Mice were treated by i.p. injection of […] bryo-1 or an equal volume of vehicle control (20% ethanol and 1% DMSO in PBS) 3 d per week (Monday, Wednesday, Friday). […]

[3] = test system: CD4+, Th1 and Th17 lymphocytes in EAE mice; assay: Flow cytometry of lymph node, spleen, brain and spinal cord in EAE mice, prevention paradigm; type: in vivo, C57BL/6J mice
Description: Mice were killed with pentobarbital and perfused via cardiac puncture with ice-cold HBSS without cations. Brain, spinal cord (collected using hydrostatic pressure), spleen, and lymph node tissue were isolated after perfusion and were mechanically dissociated by passing through 100-μm cell strainers. For CNS tissue, after dissociation, infiltrating mononuclear cells were separated from myelin debris using a 37/70% percoll gradient. After dissociation, spleens were incubated in ACK lysis buffer to remove red blood cell contamination. Cells were counted using a MACSQuant flow cytometer (Miltenyi Biotec).
For surface marker and intracellular cytokine staining of T cells, the cells were first restimulated with a cell stimulation mixture with protein transport inhibitors (eBioscience, catalog #00-4975-03) for 4 h in cRPMI at 37° C. They then underwent live/dead and surface marker staining as earlier. For intracellular cytokine staining, cells were permeabilized and fixed using either IC Fixation buffer for cytokine analysis (eBioscience, 00-8222-49) or FoxP3 fixation/permeabilization buffer for transcription factor analysis (eBioscience, 00-5521-00) after manufacturer recommended protocol and incubated with specific conjugated antibodies for the specified proteins in permeabilization buffer for 1 h.
as §1
EAE was elicited by immunizing 8-12-wk-old C57BL/6J mice with MOG35-55. Neurologic symptoms of EAE were most evident 10-14 d after MOG immunization, peaking at about 16 d and then plateauing with slight diminution until 21 d. Mice were treated with bryo-1 (30 μg/kg) or vehicle by i.p. injection 3 d per week.

[4] = brain and spinal cord, peak disease (day 14)
[5] = lymph nodes, 8 d after immunization, prevention paradigm
[6] = lymph nodes, day 8, prevention paradigm
[7] = peak disease (day 14), prophylactic treatment
[8] = spleen, day 8, prevention paradigm

## CCC/C=C/C=C/C(=O)OC1/C(=C/C(=O)OC)CC2CC(C(C)O)OC(=O)CC(O)CC3CC(OC(C)=O)C(C)(C)C(O)(CC4C/C(=C/C(=O)OC)CC(/C=C/C(C)(C)C1(O)O2)O4)O3 (centres unmarked) [bryo-1, Bryostatin-1]
[1]; LPS 100 ng/mL
  CD86 expression in LPS-stimulated BMDCs: no effect
[1]; LPS 100 ng/mL, bryo-1 at either 20 or 200 nM
  LPS-induced up-regulation of CD40: abrogated
[1]; absence of LPS, overnight
  CD40 expression: no significant effect
  CD86 expression: up-regulates CD86
[2]
  onset of EAE (clinical course): abolished the onset of EAE
[3]; [4]
  percentage of infiltrating CD4+ lymphocytes expressing IL17: unchanged
  proportion of infiltrating CD4+ lymphocytes producing IFNγ: decreased proportion
[3]; [5]
  numbers of Th1 (CD4+; IFNγ+) lymphocytes in lymph nodes: significantly decreased numbers
  numbers of Th17 (CD4+; IL17+) lymphocytes in lymph nodes: significantly decreased numbers
  numbers of total CD4+ (CD3+; CD4+) lymphocytes in lymph nodes: significantly decreased numbers
[3]; [6]
  proportion of Th1 cells among CD4+ lymphocytes: significantly lower proportion
  proportion of Th17 cells among CD4+ lymphocytes: insignificant decrease
[3]; [7]
  infiltration of CD4+ lymphocytes into the brain: diminished infiltration
  infiltration of CD4+ lymphocytes into the spinal cord: diminished infiltration
[3]; [8]
  numbers of Th1 lymphocytes in spleen: significantly decreased numbers
  numbers of Th17 cells in spleen: trend toward decreased
  numbers of total CD4+ lymphocytes in spleen: significantly decreased numbers
